Source: patent publication US20260176279A1, “DUAL RAF AND TUBULIN INHIBITORS AND METHODS OF USE THEREOF” (Deciphera Pharmaceuticals, LLC, priority 2023, published 2026)
Like-named read-outs stand apart in the source and are kept apart here.

Assays:
B-Raf kinase = target: T1, B-Raf kinase (Homo sapiens, UniProt P15056); assay: Biochemical Assay for B-Raf (coupled pyruvate kinase/lactate dehydrogenase assay)
T1 construct: GST (N); purchased Sigma

MiaPaca-2 cells = assay: MiaPaca-2 Cell Proliferation Assay; type: cell-based; details: Homo sapiens, MIA PaCa-2
Description: MiaPaca-2 cells (catalog #CRL-1420) are obtained from the American Type Culture Collect (ATTC, Manassas, VA). Briefly, cells were grown in DMEM supplemented with 10% characterized fetal bovine serum (Invitrogen, Carlsbad, CA), 2.5% New Zealand sourced horse serum and 1% Penicillin/Streptomycin/L-Glutamine at 37° C., 5% CO2, and 95% humidity. Cells are expanded until reaching 70-95% confluency at which point they are sub-cultured or harvested for assay use. For assays completed in 96-well plates, a serial dilution of test compound is dispensed into a 96-well black clear bottom plate in triplicate. Three thousand cells are added per well in 200 μL complete growth medium in the 96-well plate. Plates are incubated for 67 to 72 h at 37° C., 5% CO2, and 95% humidity. At the end of the incubation, 40 μL of a […] solution of resazurin (Sigma, St. Louis, MO) in PBS is added to each well of the plate and plates are incubated for an additional 5 to 6 hours at 37° C., 5% CO2, and 95% humidity. For 384-well assays, a threefold, 8-point serial dilution of compound was spotted column wise into a 384 well black, clear bottom, tissue culture treated plate using the Beckman Coulter Echo 650. Likewise, a threefold, 8-point serial dilution of cobimetinib was spotted row wise into the 384 well black, clear bottom plate containing compound. DMSO concentration was constant across all wells at 0.4%. Seven hundred fifty cells are added per well in 50 μL complete growth medium in each 384-well plate. Plates are incubated for 67 to 72 h at 37° C., 5% CO2, and 95% humidity. At the end of the incubation, 10 μL of a 440 μM solution of resazurin (Sigma, St. Louis, MO) in PBS is added to each well of the plate and plates are incubated for an additional 4 to 6 h at 37° C., 5% CO2, and 95% humidity. Plates are read on a Synergy2 or equivalent reader (Biotek, Winooski VT) using an excitation of 540 nm and an emission of 600 nm. Data is analyzed using Prism software (Graphpad, San Diego, CA) to calculate IC50 values.

C-Raf kinase = target: T2, C-Raf kinase (Homo sapiens, UniProt P04049, Y340D/Y341D); assay: Biochemical Assay for C-Raf (coupled pyruvate kinase/lactate dehydrogenase assay)
T2 construct: C-Raf residues 306-end; Y340D, Y341D with N-; GST (N); purchased Eurofins

HCT-116 cells = assay: HCT-116 Cell Proliferation Assay; type: cell-based; details: Homo sapiens
Description: HCT-116 cells (catalog #CCL-247) are obtained from the American Type Culture Collect (ATCC, Manassas, VA). Briefly, cells are grown in McCoy's 5A supplemented with 10% characterized fetal bovine serum (Invitrogen, Carlsbad, CA) and 1% Penicillin/Streptomycin/L-Glutamine at 37° C., 5% CO2, and 95% humidity. Cells are expanded until reaching 70-95% confluency at which point they are sub-cultured or harvested for assay use. A serial dilution of test compound is dispensed into a 384-well black clear bottom plate in triplicate. 375 cells are added per well in 50 μL complete growth medium in the 384-well plate. Plates are incubated for 67 to 72 h at 37° C., 5% CO2, and 95% humidity. At the end of the incubation, 40 μL of a […] solution of resazurin (Sigma, St. Louis, MO) in PBS is added to each well of the plate and plates are incubated for an additional 4 to 5 hours at 37° C., 5% CO2, and 95% humidity. Plates are read on a Synergy2 or equivalent reader (Biotek, Winooski, VT) using an excitation of 540 nm and an emission of 600 nm. Data is analyzed using Prism software (Graphpad, San Diego, CA) to calculate IC50 values.

HPAF-II cells = assay: HPAF-II Cell Proliferation Assay; type: cell-based; details: Homo sapiens, HPAF-II; Table 4; read-out: HPAF-II IC50
Description: HPAF-II cells (catalog #CRL-1997) are obtained from the American Type Culture Collect (ATCC, Manassas, VA). Briefly, cells are grown in Minimum Essential Media supplemented with 10% characterized fetal bovine serum (Invitrogen, Carlsbad, CA) and 1% Penicillin/Streptomycin/L-Glutamine at 37° C., 5% CO2, and 95% humidity. Cells are expanded until reaching 70-95% confluency at which point they are sub-cultured or harvested for assay use. A serial dilution of test compound is dispensed into a 384-well black clear bottom plate in triplicate. 750 cells are added per well in 50 μL complete growth medium in the 384-well plate. Plates are incubated for 115 to 120 h at 37° C., 5% CO2, and 95% humidity. At the end of the incubation, 40 μL of a […] solution of resazurin (Sigma, St. Louis, MO) in PBS is added to each well of the plate and plates are incubated for an additional 18 to 24 h at 37° C., 5% CO2, and 95% humidity. Plates are read on a Synergy2 or equivalent reader (Biotek, Winooski, VT) using an excitation of 540 nm and an emission of 600 nm. Data is analyzed using Prism software (Graphpad, San Diego, CA) to calculate IC50 values.

[1] = Table 1, inhibition of biochemical activity, read-out: BRAF
[2] = Table 2, inhibition of cell proliferation, read-out: MiaPaca-2
[3] = Table 1, inhibition of biochemical activity, read-out: CRAF
[4] = Table 2, inhibition of cell proliferation, read-out: HCT-116

T1 sequence (P15056 416-766): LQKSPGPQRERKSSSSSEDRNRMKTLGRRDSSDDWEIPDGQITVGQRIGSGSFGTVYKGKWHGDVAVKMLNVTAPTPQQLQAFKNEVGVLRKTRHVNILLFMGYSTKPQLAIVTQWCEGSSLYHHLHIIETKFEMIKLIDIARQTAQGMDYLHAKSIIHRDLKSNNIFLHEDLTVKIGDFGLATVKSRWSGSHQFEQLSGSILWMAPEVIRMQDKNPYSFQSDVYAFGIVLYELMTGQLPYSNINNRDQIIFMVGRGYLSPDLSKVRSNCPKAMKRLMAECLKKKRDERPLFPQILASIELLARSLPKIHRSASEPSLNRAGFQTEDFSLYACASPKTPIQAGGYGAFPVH
T2 sequence (P04049 307-648 Y340D/Y341D): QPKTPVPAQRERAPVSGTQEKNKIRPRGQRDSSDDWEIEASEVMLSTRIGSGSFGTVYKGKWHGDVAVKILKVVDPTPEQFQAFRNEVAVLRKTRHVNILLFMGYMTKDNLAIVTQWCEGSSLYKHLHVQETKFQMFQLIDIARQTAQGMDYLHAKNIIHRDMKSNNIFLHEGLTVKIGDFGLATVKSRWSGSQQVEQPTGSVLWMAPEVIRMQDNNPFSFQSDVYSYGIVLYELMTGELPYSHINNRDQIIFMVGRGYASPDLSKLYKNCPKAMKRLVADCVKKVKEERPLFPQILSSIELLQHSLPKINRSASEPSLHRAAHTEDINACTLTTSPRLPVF

| IC50 (B-Raf kinase; [1]) [nM] | IC50 (MiaPaca-2 cells; [2]) [nM] | IC50 (C-Raf kinase; [3]) [nM] | IC50 (HCT-116 cells; [4]) [nM] | Structure (SMILES) | other results |
| --- | --- | --- | --- | --- | --- |
| < 100 | 500 to 1000 | < 100 | – | Cc1ccc(NC(=O)Nc2ccc(C(F)(F)F)nc2)cc1-c1cncc(-c2cc(NC(=O)C3CC3)ncn2)c1 [Example 15] | – |
| 1000 to 10000 | – | 1000 to 10000 | – | Cc1ccc(NC(=O)Nc2ccc(C(F)(F)F)nc2)cc1-c1cc(F)nc(N2CCOCC2)c1 [Example 35] | – |
| < 100 | < 100 | < 100 | – | Cc1ccc(NC(=O)Nc2ccc(C(F)(F)F)nc2)cc1-c1cc(-c2cnn(C)c2)nc(N2CCOCC2)c1 [Example 29] | – |
| < 100 | 100 to 500 | < 100 | – | Cc1ccc(NC(=O)Nc2ccc(C(F)(F)F)nc2)cc1-c1cncc(-c2cc(N)ncn2)c1 [Example 16] | – |
| < 100 | 1000 to 10000 | < 100 | 1000 to 10000 | Cc1ccc(NC(=O)Nc2ccc(C(F)(F)F)nc2)cc1-c1cncc(-c2ccnc(NC(=O)CC#N)c2)n1 [Example 14] | – |
| 100 to 500 | 100 to 500 | < 100 | 500 to 1000 | Cc1ccc(NC(=O)Nc2ccc(C(F)(F)F)nc2)cc1-c1cc(OC2CCNCC2)nc(N2CCOCC2)c1 [Example 25, 1-(4-methyl-3-(2-morpholino-6-(piperidin-4-yloxy)pyridin-4-yl)phenyl)-3-(6-(trifluoromethyl)pyridin-3-yl)urea] | – |
| < 100 | 100 to 500 | < 100 | 100 to 500 | CC(=O)Nc1cc(-c2cncc(-c3cc(NC(=O)Nc4ccc(C(F)(F)F)nc4)ccc3C)n2)ccn1 [Example 12] | – |
| < 100 | 500 to 1000 | < 100 | 1000 to 10000 | CC(=O)Nc1cc(-c2cc(-c3cc(NC(=O)Nc4ccc(C(F)(F)F)nc4)cnc3C)ccn2)ccn1 [Example 6] | – |
| – | – | – | – | CNC(=O)c1cc(-c2cc(-c3cc(NC(=O)NC4CCCCC4)c(F)cc3C)cc(OCCO)n2)ccn1 [reference compound] | IC50 (HPAF-II cells): 1000 to 10000 nM; IC50 (HCT-116 cells; HCT-116, Table 4, read-out: HCT-116 IC50): 1000 to 10000 nM |
| < 100 | < 100 | < 100 | – | Cc1ccc(NC(=O)Nc2ccc(C(F)(F)F)nc2)cc1-c1cc(N2CCOCC2)nc(N2CCOCC2)c1 [Example 32] | – |
| 500 to 1000 | 100 to 500 | < 100 | 1000 to 10000 | Cc1ccc(NC(=O)Nc2cccnc2)cc1-c1cc(OCCO)nc(N2CCOCC2)c1 [Example 28] | – |
| 1000 to 10000 | 1000 to 10000 | 1000 to 10000 | 1000 to 10000 | CC(=O)Nc1cc(-c2cc(-c3cc(NC(=O)Nc4ccc(C(F)(F)F)nc4)ccc3C)nn(C)c2=O)ccn1 [Example 8] | – |
| < 100 | < 100 | < 100 | – | CC(=O)Nc1cc(-c2cc(-c3cc(NC(=O)Nc4ccc(C(F)(F)F)nc4)ccc3C)cc(OCCO)n2)ccn1 [Example 5] | – |
| 100 to 500 | 500 to 1000 | 100 to 500 | 500 to 1000 | Cc1ccc(NC(=O)Nc2ccc(C(F)(F)F)nc2)cc1-c1cc(-c2ccnc(NC(=O)CN(C)C)c2)c(=O)n(C)c1 [Example 11] | – |
| < 100 | 100 to 500 | < 100 | – | CNC(=O)c1cc(-c2cncc(-c3cc(NC(=O)Nc4ccc(C(F)(F)F)nc4)ccc3C)c2)ncn1 [Example 21] | – |
| < 100 | 500 to 1000 | < 100 | 500 to 1000 | COCC(=O)Nc1cc(-c2cncc(-c3cc(NC(=O)Nc4ccc(C(F)(F)F)nc4)ccc3C)n2)ccn1 [Example 13] | – |
| 100 to 500 | < 100 | < 100 | – | Cc1ccc(NC(=O)Nc2ccc(C(F)(F)F)nc2)cc1-c1cc(OCCN(C)C)nc(N2CCOCC2)c1 [Example 30] | – |
| 100 to 500 | < 100 | < 100 | < 100 | Cc1ccc(NC(=O)Nc2ccc(C(F)(F)F)nc2)cc1-c1cc(OCCO)nc(N2CCOCC2)c1 [Example 37] | – |
| – | < 100 | – | – | Cc1ccc(NC(=O)Nc2ccc(C(F)F)nc2)cc1-c1cc(OCCO)nc(N2CCOCC2)c1 [Example 38] | – |
| < 100 | < 100 | < 100 | – | Cc1ccc(NC(=O)Nc2ccc(C(F)(F)F)nc2)cc1-c1cc(OCCO)nc(-c2cn[nH]c2)c1 [Example 42] | – |
| 100 to 500 | < 100 | < 100 | – | Cc1ccc(NC(=O)Nc2ccc(C(F)(F)F)nc2)cc1-c1cc(OCC2COC2)nc(N2CCOCC2)c1 [Example 33] | – |
| 100 to 500 | < 100 | < 100 | – | Cc1ccc(NC(=O)Nc2cnc(C(F)(F)F)nc2)cc1-c1cc(OCCO)nc(N2CCOCC2)c1 [Example 24, 1-(3-(2-(2-hydroxyethoxy)-6-morpholinopyridin-4-yl)-4-methylphenyl)-3-(2-(trifluoromethyl)pyrimidin-5-yl)urea] | IC50 (B-Raf kinase; Table 3, read-out: BRAF IC50): 100 to 500 nM; IC50 (MiaPaca-2 cells; Table 3, read-out: MiaPaca-2 IC50): < 100 nM; IC50 (C-Raf kinase; Table 3, read-out: CRAF IC50): 100 to 500 nM; IC50 (HCT-116 cells; HCT-116, Table 3, read-out: HCT-116 IC50): < 100 nM |
| 100 to 500 | < 100 | < 100 | – | Cc1ccc(NC(=O)Nc2ccc(C)c(-c3cc(OCCO)nc(N4CCOCC4)c3)c2)cn1 [Example 23, 1-(3-(2-(2-hydroxyethoxy)-6-morpholinopyridin-4-yl)-4-methylphenyl)-3-(6-methylpyridin-3-yl)urea] | – |
| < 100 | 1000 to 10000 | < 100 | 1000 to 10000 | CC(=O)Nc1cc(-c2cc(-c3cc(NC(=O)Nc4ccc(C(F)(F)F)nc4)ccc3C)cc(=O)n2C)ccn1 [Example 7] | – |
| 100 to 500 | 100 to 500 | < 100 | – | COCC(=O)Nc1cc(-c2cc(-c3cc(NC(=O)Nc4ccc(C(F)(F)F)nc4)ccc3C)cn(C)c2=O)ccn1 [Example 3, 2-methoxy-N-(1-methyl-5-(2-methyl-5-(3-(6-(trifluoromethyl)pyridin-3-yl)ureido)phenyl)-2-oxo-1,2-dihydro-[3,4′-bipyridin]-2′-yl)acetamide] | – |
| 500 to 1000 | 100 to 500 | 100 to 500 | – | Cc1ccc(NC(=O)Nc2ccc(C(F)(F)F)nc2)cc1-c1cc(N2CCOCC2)nc(N2CCN(C)CC2)c1 [Example 31] | – |
| 500 to 1000 | 1000 to 10000 | 100 to 500 | – | Cc1cc(F)c(NC(=O)Nc2ccc(C(F)(F)F)nc2)cc1-c1cc(OCCN(C)C)nc(N2CCOCC2)c1 [Example 27] | – |
| 1000 to 10000 | < 100 | < 100 | – | Cc1ncc(NC(=O)Nc2ccc(C(F)(F)F)nc2)cc1-c1cc(OCCO)nc(N2CCOCC2)c1 [Example 26] | – |
